Here are results for one molecule from patent US12071431B2, “Pyridin-sulfonamide compounds for the treatment of conditions related to interleukin 1 beta” (ALLINKY BIOPHARMA, priority 2018, dated 2024).

Series [1] has as its system IL-1β. The series is described as follows: In vitro inhibition of IL-1β in human primary macrophages challenged with LPS (ELISA). The settings on record: Primary macrophage, 2 hours compound pre-treatment, 100 ng/mL LPS, 16 hours, read-out: IC50 (IL-Iβ inhibition). The series is classed as cell-based. Here is the method: Example 12—In Vitro Inhibition of IL-1β in Human Primary Macrophages Challenged with LPS
5 mL of RPMI media without serum (1:1) was added to a sample of 5 mL of human whole blood in EDTA or sodium citrate and mixed well by inversion. 3 mL of Histopaque-1077 was added to a 15 mL conical centrifuge tube and brought to room temperature. Using a transfer pipette, 10 mL of the blood-RPMI mixture was carefully layered onto the Histopaque-1077 and was centrifuged at 400×g for exactly 30 minutes at room temperature.
After centrifugation, a pasteur pipette was used to aspirate the upper layer to within 0.5 cm of the opaque interface containing the mononuclear cells. The upper layer was discarded. With a Pasteur pipette, the opaque interface was carefully transferred to a clean conical centrifuge tube. 5 mL RPMI was added to the tube and mixed by inversion, followed by centrifugation at 250×g for exactly 10 minutes. The supernatant was aspirated and discarded.
The leukocyte pellet was re-suspended with 5 mL RPMI and mixed gently with a Pasteur pipette, followed by centrifugation at 250×g for exactly 10 minutes. The pellet was washed 3× with PBS and re-suspended in RPMI medium.
2×10^5 PBMCs at a total volume of 200 μL/well were plated into a 96-well plate and incubated for 4 hrs at 37° C. in a CO2 incubator to allow the monocytes to settle, leaving the lymphocytes in suspension. Following incubation, 100 μL were aspirated out of each well to ensure removal of the lymphocyte population.
The monocytes were differentiated to macrophages by addition of 200 ng/mL of recombinant human GM-CSF (4 mg/mL stock) and incubated at 37° C./5% CO2 for 6 days. The medium was changed every two days by removing half the volume of medium in the well and re-supplementing with fresh RPMI complete medium and recombinant human GM-CSF.
Following differentiation, the cells were treated in duplicates with a compound according to the invention in a total volume of 50 μL, maintaining a final DMSO percentile of 0.5%. The plate was transferred to an incubator maintained at 37° C./5% CO2 for 2 hours. The cells were stimulated with 100 ng/mL of LPS (4×) (1 mg/mL stock) in a total volume of 50 μL.
The plate was transferred to an incubator maintained at 37° C./5% CO2 for 16 hours.
• 1. Each well from a pre-coated ELISA plate was aspirated and washed with wash buffer (0.05% Tween 20 in PBS; pH 7.2-7.4) by filling each well with wash buffer (300 μL). The process was repeated two times for a total of three washes. The liquid was removed completely at each step. After the last wash, any remaining wash buffer was removed. • 2. Plates were blocked by adding 300 μL of block buffer (1% BSA in PBS) to each well and incubated at room temperature for 1 hour. • 3. The aspiration/wash as in step 1 was repeated. • 4. 100 μL of sample or standard prepared in reagent diluent (0.1% BSA, 0.05% Tween 20 in PBS pH7.2-7.4) was added. The wells were covered with an adhesive strip and incubated for 2 hours at room temperature. • 5. The aspiration/wash as in step 1 was repeated. • 6. 100 μL of detection antibody, diluted in reagent diluent, was added to each well. The wells were covered with a new adhesive strip and incubated for 2 hours at room temperature. • 7. The aspiration/wash as in step 1 was repeated. • 8. 100 μL of the working dilution (1:200 from the stock) and streptavidin-HRP was added to each well. The plate was covered and incubated for 20 minutes at room temperature. • 9. 100 μL of substrate solution (1:1 mixture of H2O2 and tetramethylbenzidine) was added to each well and incubated for 20 minutes at room temperature. • 10.50 μL of stop solution (2N H2SO4) was added to each well. The plate was tapped gently to ensure thorough mixing. • 11. The optical density of each well was determined immediately using a microplate reader (Spectramax Plus) set to 450 nm. Cytokine Viability Assessment […]
In general terms: An ELISA detects its analyte on a solid surface through an enzyme-linked reagent.

In series [2] the test system is Non-Alcoholic Steatohepatitis (NASH) in male C57BL/6 mice. Kind of series: Treatment of non-alcoholic steatohepatitis (NASH) in male C57BL/6 mice (streptozotocin + high-fat diet). The series is classed as in vivo. The procedure: Example 15: Effect of Compound 5 and 7 in the Treatment of Non-Alcoholic Steatohepatitis (NASH) in Male C57BL/6 Mice
Timed pregnant mice (n=30) were selected for the study. The delivered pups were subcutaneously injected on the post-natal day 2 (PND-2) with 200 μg of Streptozotocin and were allowed to remain with the mother until they reached the weanling age. After weanling, the male pups were selected and fed with 60% kcal fat diet (Research Diet-D12492) for the next 2 weeks. All the animals were observed twice daily for clinical signs.
Mice were dosed with vehicle, test compounds and reference compound (elafibranor) twice daily morning (9.00 AM) and evening before the start of dark cycle (6:00 PM) from day 0 to 28.
Animal body weight measurements were made daily for the complete duration of the experiment.
Animals were dosed for 28 days (from week 6 to 10) with the test and reference compounds.
Blood glucose was estimated before the treatment start and on the termination day 28. Serum ALT and AST levels were measured from the plasma before the treatment start and on day 28.
Histopathology analysis including H&E staining, Masson's trichrome staining and Oil-Red-O (ORO) staining was performed for the liver tissues.
All the H&E stained tissue sections were examined by light microscopy. As per the below grading system (Kleiner et al., 2005) in 200× objective lens, NAFLD scoring was done for steatosis, lobular inflammation and hepatic ballooning.
All the Masson's trichrome stained tissue sections were examined by light microscopy in 100× objective lens. Randomly selected five fields (approx 684.85 μm×917.11 m per field) from each liver were subjected to collagen proportion area measurement by using Image Pro Premier 9.1 software. The percentage of collagen proportion area was calculated by dividing collagen tissue area by total tissue area.
All the Oil-Red-O stained tissue sections were examined by light microscopy in 100× objective lens. Randomly selected five fields (approximately 688.33 μm×922.45 μm per field) from each liver were subjected to measure stained area by using Image Pro Premier 9.1 software. The percentage of stained area was calculated by dividing lipid stained tissue area by total tissue area.

[3] abbreviates: 3 mg/kg dose, twice daily, 28 days, H&E NAFLD scoring.

Regarding `CCOc1ccc(Oc2cc(S(=O)(=O)N(C)C)cnc2N2CCC(Oc3ccc(Cl)cc3)CC2)cc1` [Compound 7], the IC50 – broadly, the concentration at which inhibition is half-maximal – in series [1] turned out to be 0.027 µM. The “NAFLD activity score (NAS)” value in series [2] (3 mg/kg dose, twice daily, 28 days, FIG. 1) is listed as “better NAS score than Elafibranor”. Besides, in series [2] (setting [3]), the “lobular inflammation in the liver” value is listed as “significantly reduced” and the “steatosis in the liver” value is recorded as “significantly reduced”. The “hepatomegaly and liver to body weight ratio” value in series [2] (28 days of treatment, FIG. 3) was “did not show any hepatomegaly and increase in liver to body weight ratio”. In addition, the “Serum AST levels” value in series [2] (after 28 days of treatment, FIG. 2) is “significantly reduced”.
